The target of test [1] is Lck (Homo sapiens, UniProt P06239). As to conditions: reported in [51]; cited from earlier work.
In test [2] the test system is IL-2 production in hPBL T-cells. The test is described as follows: T-cell activation: TCR-induced IL-2 secretion (ELISA). Conditions: human T-cell cultures, anti-CD3/anti-CD28 stimulation, 20 hours, FIG. 7B; read-out: IC50 inhibition of IL-2 production. Format: cell-based. The method, then: T-cell activation. Whole blood was obtained from normal donors and human peripheral blood lymphocytes (hPBL) were isolated by ficol-hypaque density centrifugation. T-cells were then purified from the hPBL by negative selection using an R&D column following the manufacturers directions (R&D Systems, Minneapolis, Minn.). A 96-well flat-bottomed plate was coated with 10 μg/ml of goat anti-mouse (GAM)-IgG1 (Caltag, Burlingame, Calif.) in PBS overnight at 4C. The GAM-coated plate was flicked out and anti-CD3 mAb (UCHT-1, Coulter/Immunotech, Miami, Fla.) is added at 0.2 μg/ml in AIMV medium (Gibco, Grand Island, N.Y.) for 3 hr. at 37C. Purified T-cells were pre-incubated at 1×10^5/well in AIM V with or without compound for 30 minutes then transferred to the anti-CD3 capture plate. Finally, anti-CD28 (Pharmingen, San Diego, Calif.) in AIMV (150 ng/ml final) was added to each well. Cells were incubated for 20 hours at 37C in 5% CO2 then supernatants were tested by ELISA for cytokine levels (Endogen, Woburn, Mass.).
(In general: An ELISA detects its analyte on a solid surface through an enzyme-linked reagent.)

In test [3] the target is T1, ZAP-70 (Homo sapiens, UniProt P43403).
T1 sequence (P43403 1-619): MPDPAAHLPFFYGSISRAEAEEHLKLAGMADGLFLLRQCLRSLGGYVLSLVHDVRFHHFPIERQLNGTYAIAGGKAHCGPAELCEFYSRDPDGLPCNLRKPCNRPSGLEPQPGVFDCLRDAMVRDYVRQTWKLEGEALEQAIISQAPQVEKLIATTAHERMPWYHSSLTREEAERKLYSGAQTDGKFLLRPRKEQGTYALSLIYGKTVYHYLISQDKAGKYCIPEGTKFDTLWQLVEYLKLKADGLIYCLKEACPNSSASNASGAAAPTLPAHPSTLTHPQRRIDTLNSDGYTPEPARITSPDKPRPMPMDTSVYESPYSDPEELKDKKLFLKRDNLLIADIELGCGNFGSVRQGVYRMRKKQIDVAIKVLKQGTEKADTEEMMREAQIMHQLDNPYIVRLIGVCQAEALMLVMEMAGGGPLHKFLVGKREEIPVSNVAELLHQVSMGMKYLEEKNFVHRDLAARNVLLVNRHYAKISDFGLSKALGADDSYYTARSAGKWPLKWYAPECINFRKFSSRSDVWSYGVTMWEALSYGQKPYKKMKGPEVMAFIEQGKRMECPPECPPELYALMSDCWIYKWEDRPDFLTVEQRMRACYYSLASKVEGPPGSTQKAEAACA
Conditions: reported in [51]; cited from earlier work.

For test [4], the system named is TCR ζ-chain (p23) and 70 kD protein phosphorylation in Jurkat cells. Format: cell-based. As to conditions: TCR-induced phosphotyrosine, western blot, FIG. 7C. The method, then: Phosphotyrosine western blotting. […] Cells were then transferred to 37° C. water bath for 1 minute. Stimulation was stopped by the addition of 5 volumes of cold PBS containing 200 μM sodium orthovanadate. Cells were spun down and lysed in 150 mM Tris/10 mM HEPES buffer, pH 7.3, containing 1% Triton X-100 and Complete protease inhibitor cocktail (Boehringer Mannheim, Germany) for 30 minutes on ice. […] Blots were probed with anti-phosphotyrosine (4G10, Upstate Biotechnology, Inc., Saranac Lake, N.Y.) and developed using ECL-plus following the manufacturers directions (Amersham, Arlington Heights, Ill.).
Background: Immunoblotting shows a protein as a band on a membrane.

SMILES strings stand for the structures.

Sequence of Lck (P06239 whole entry, species assumed): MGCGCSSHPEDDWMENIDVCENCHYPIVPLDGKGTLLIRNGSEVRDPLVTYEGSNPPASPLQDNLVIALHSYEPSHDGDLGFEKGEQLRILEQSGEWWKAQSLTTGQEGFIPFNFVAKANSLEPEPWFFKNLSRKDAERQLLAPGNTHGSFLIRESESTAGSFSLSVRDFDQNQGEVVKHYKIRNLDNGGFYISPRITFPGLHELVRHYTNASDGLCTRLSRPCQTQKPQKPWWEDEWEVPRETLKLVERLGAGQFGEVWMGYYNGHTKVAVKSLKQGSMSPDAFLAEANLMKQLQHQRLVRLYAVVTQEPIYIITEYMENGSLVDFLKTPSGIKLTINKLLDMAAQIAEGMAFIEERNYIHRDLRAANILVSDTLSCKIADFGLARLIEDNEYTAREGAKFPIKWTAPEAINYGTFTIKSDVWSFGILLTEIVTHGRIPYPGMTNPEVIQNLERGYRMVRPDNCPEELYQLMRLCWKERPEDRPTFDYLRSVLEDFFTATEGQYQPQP

On to `Cc1ccc(-c2nn(C(C)(C)C)c3ncnc(N)c23)cc1` [PP1], for which, in test [1], the “inhibitory activity against Lck compared with PP2” value is “approximately the same inhibitory activity against Lck”.

As to `CN[C@@H]1C[C@H]2O[C@@](C)([C@@H]1OC)n1c3ccccc3c3c4c(c5c6ccccc6n2c5c31)C(=O)NC4` [staurosporine], the IC50 (as a rule, the point on the concentration scale where inhibition reaches its midpoint) in test [2] turned out to be 60 nM.

Turning to `CC(C)(C)n1nc(-c2ccc(Cl)cc2)c2c(N)ncnc21` [PP2], the 50% inhibitory concentration (IC50) in test [2] was 600 nM. The IC50 in test [3] is no less than 100000 nM. Besides, in test [4], the “inhibition of Lck-dependent phosphorylation of the TCR ζ-chain (p23)” value is given as “dose-dependent inhibition” and the “inhibition of phosphorylation of a 70 kD protein (likely ZAP-70)” value is “inhibited the phosphorylation of a 70 kD protein”.

Values taken from patent US20040204863A1, “Crystal of a kinase-ligand complex and methods of use” (priority 1999, published 2004).
